From US8163756B2 (priority 2004, dated 2012)

biological target: B-Raf(V599E) kinase (Homo sapiens, UniProt P15056, V600E); assay: B-Raf(V599E) kinase assay B1 (construct 1, MEK1 substrate, coupled spectrophotometric); type: biochemical
Description: The test compounds were incubated with the reaction mixtureat 30° C. for 2 h. […] The reaction rate was calculated using the […] time frame. […] IC50 values were calculated from a series of percent inhibition values determined at a range of inhibitor concentrations using software routines as implemented in the GraphPad Prism software package.

B-Raf(V599E) kinase, sequence (P15056 with tags, fused parts or gaps V600E): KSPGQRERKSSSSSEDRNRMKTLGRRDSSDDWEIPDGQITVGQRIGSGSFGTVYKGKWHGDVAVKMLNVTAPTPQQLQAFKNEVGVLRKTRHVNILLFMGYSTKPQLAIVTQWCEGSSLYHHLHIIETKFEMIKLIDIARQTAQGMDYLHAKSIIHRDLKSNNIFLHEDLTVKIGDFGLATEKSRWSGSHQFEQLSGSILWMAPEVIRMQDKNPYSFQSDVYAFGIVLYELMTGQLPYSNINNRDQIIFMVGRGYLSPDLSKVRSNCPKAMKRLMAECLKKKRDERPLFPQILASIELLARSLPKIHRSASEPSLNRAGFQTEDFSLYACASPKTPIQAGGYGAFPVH

Question: `CCOC(=O)c1ccc(-n2nc(C(C)(C)C)cc2NC(=O)Nc2cccc(Cl)c2Cl)cc1` [Example 243, ethyl 4-{3-t-butyl-5-[3-(2,3-dichlorophenyl)ureido]-1H-pyrazol-1-yl}benzoate] was tested. Which IC50 did it give?
Answer: 41 nM

Question: `CC(C)(C)c1cc(NC(=O)Nc2cccc(Cl)c2Cl)n(-c2ccc(C(=O)O)cc2)n1` [Example 244, 4-{3-t-butyl-5-[3-(2,3-dichlorophenyl)ureido]-1H-pyrazol-1-yl}benzoic acid] was tested. Which IC50 did it give?
Answer: 38 nM

Question: Which IC50 does the source give for `CC(=O)OCc1cccc(-n2nc(C(C)(C)C)cc2NC(=O)Nc2cccc(Cl)c2Cl)c1` [Example 245, 3-(3-t-butyl-5-(3-(2,3-dichlorophenyl)ureido)-1H-pyrazol-1-yl)benzyl acetate] here?
Answer: 5.3 nM

Question: `CC(C)(C)c1cc(NC(=O)Nc2cccc(F)c2F)n(-c2ccc(CO)cc2)n1` [Example 246, 1-{3-t-butyl-1-[4-(hydroxymethyl)phenyl]-1H-pyrazol-5-yl}-3-(2,3-difluoro-phenyl)urea] was tested. Which IC50 did it give?
Answer: 39 nM

Question: Which IC50 does the source give for `CCOC(=O)Cc1cccc(-n2nc(C(C)(C)C)cc2NC(=O)Nc2ccc3c(c2)OCO3)c1` [Example 247, ethyl 2-(3-{5-[3-(benzo[d][1,3]dioxol-5-yl)ureido]-3-t-butyl-1H-pyrazol-1-yl}phenyl)-acetate] here?
Answer: 70 nM

Question: Which IC50 does the source give for `CC(C(=O)O)c1cccc(-n2nc(C(C)(C)C)cc2NC(=O)Nc2cccc(Cl)c2Cl)c1` (stereo not drawn) [Example 248, 2-(3-(3-t-butyl-5-(3-(2,3-dichlorophenyl)ureido)-1H-pyrazol-1-yl)phenyl)propanoic acid] here?
Answer: 8.1 nM

Question: How did the IC50 turn out when `CC(C)(C)c1cc(NC(=O)Nc2ccc3c(c2)OCO3)n(-c2cccc(CCN)c2)n1` [Example 253, 1-{1-[3-(2-aminoethyl)phenyl]-3-t-butyl-1 H-pyrazol-5-yl}-3-(benzo[d][1,3]dioxol-5-yl)urea] was run?
Answer: 75 nM

Question: How did the IC50 turn out when `CC(C)(C)c1cc(NC(=O)Nc2ccc(Cl)cc2)n(-c2cccc(CCN)c2)n1` [Example 255, 1-{1-[3-(2-aminoethyl)phenyl]-3-t-butyl-1H-pyrazol-5-yl}-3-(4-chlorophenyl)urea] was run?
Answer: 86 nM

Question: How did the IC50 turn out when `CNCCc1cccc(-n2nc(C(C)(C)C)cc2NC(=O)Nc2cccc(Cl)c2Cl)c1` [Example 258, 1-(3-t-butyl-1-(3-(2-(methylamino)ethyl)phenyl)-1H-pyrazol-5-yl)-3-(2,3-dichlorophenyl)urea] was run?
Answer: 3.4 nM

Question: Which IC50 does the source give for `CC(C)NCCc1cccc(-n2nc(C(C)(C)C)cc2NC(=O)Nc2cccc(Cl)c2Cl)c1` [Example 259, 1-(3-t-butyl-1-(3-(2-(isopropylamino)ethyl)phenyl)-1H-pyrazol-5-yl)-3-(2,3-dichlorophenyl)urea] here?
Answer: 8.3 nM

Question: For `CC(C)(C)c1cc(NC(=O)Nc2cccc(Cl)c2Cl)n(-c2ccc(C(=N)NO)cc2)n1` [Example 260, 4-{3-t-butyl-5-[3-(2,3-dichlorophenyl)ureido]pyrazol-1-yl}-N-hydroxybenzamidine], which IC50 is on record?
Answer: 4 nM

Question: With `CC(C)(C)c1cc(NC(=O)Nc2ccc(Cl)cc2)n(-c2cccc(CN3C(=O)C(=O)N(c4ccccc4)C3=O)c2)n1` [Example 269, 1-(3-t-butyl-1-(3-[(2,4,5-trioxo-3-phenylimidazolidin-1-yl)methyl]phenyl}-1H-pyrazol-5-yl)-3-(4-chlorophenyl)urea] as the compound, how does the IC50 read?
Answer: 279 nM

Question: For `CC(C)(C)c1cc(NC(=O)Nc2ccc(F)cc2)n(-c2cccc(Cn3c(=O)[nH]n(-c4ccccc4)c3=O)c2)n1` [Example 272, 1-(3-t-butyl-1-{3-[(3,5-dioxo-1-phenyl-1,2,4-triazolidin-4-yl)methyl]phenyl}-1H-pyrazol-5-yl)-3-(4-fluorophenyl)urea], which IC50 is on record?
Answer: 61 nM

Question: For `CC(C)(C)c1cc(NC(=O)NC2CCCCC2)n(-c2cccc(-c3cccnc3)c2)n1` [Example 274, 1-[5-t-butyl-2-(3-pyridin-3-yl-phenyl)-2H-pyrazol-3-yl]-3-cyclohexyl-urea], which IC50 is on record?
Answer: 134 nM

Question: With `CC(C)(C)c1ncc(NC(=O)Nc2cccc(Oc3ccccc3)c2)c(-c2ccccc2)n1` [Example 280, 1-(2-t-butyl-4-phenylpyrimidin-5-yl)-3-(3-phenoxyphenyl)urea] as the compound, how does the IC50 read?
Answer: 275 nM

Question: Which IC50 does the source give for `CC(C)(C)c1cc(NC(=O)Nc2ccc(F)cc2F)n(-c2ccc3ncccc3c2)n1` [Example 284, 1-(3-t-butyl-1-(quinolin-6-yl)-1H-pyrazol-5-yl)-3-(2,4-difluorophenyl)urea] here?
Answer: 8.5 nM

Question: For `CC(C)(C)c1cc(NC(=O)Nc2cccc(Cl)c2Cl)n(-c2cc(C(=O)O)c3ccccc3c2)n1` [Example 287, 3-{3-t-butyl-5-(3-(2,3-dichlorophenyl)ureido]-1H-pyrazol-1-yl}-1-naphthoic acid], which IC50 is on record?
Answer: 41 nM

Question: For `CCOC(=O)c1cc(-n2nc(C(C)(C)C)cc2NC(=O)NC2CCCCC2)cc2ccccc12` [Example 288, ethyl 3-(3-t-butyl-5-(3-cyclohexylureido)-1H-pyrazol-1-yl)-1-naphthoate], which IC50 is on record?
Answer: 56 nM

Question: How did the IC50 turn out when `CCOC(=O)c1cc(-n2nc(C(C)(C)C)cc2NC(=O)Nc2ccc(F)cc2F)cc2ccccc12` [Example 289, ethyl 3-(3-t-butyl-5-(3-(2,4-difluorophenyl)ureido)-1H-pyrazol-1-yl)-1-naphthoate] was run?
Answer: 28 nM

Question: Which IC50 does the source give for `CC(C)(C)c1cc(NC(=O)Nc2ccccc2)n(-c2cc(CO)c3ccccc3c2)n1` [Example 290, 1-[3-t-butyl-1-(4-(hydroxymethyl)naphthalen-2-yl)-1H-pyrazol-5-yl]-3-phenylurea] here?
Answer: 12 nM

Question: Which IC50 does the source give for `CC(C)(C)c1cc(NC(=O)Nc2ccccc2F)n(-c2cc(CO)c3ccccc3c2)n1` [Example 291, 1-(3-t-butyl-1-(4-(hydroxymethyl)naphthalen-2-yl)-1H-pyrazol-5-yl)-3-(2-fluorophenyl)urea] here?
Answer: 5.3 nM

Question: For `CC(C)(C)c1cc(NC(=O)NC2CCCCC2)n(-c2cc(CO)c3ccccc3c2)n1` [Example 292, 1-(3-t-butyl-1-(4-(hydroxymethyl)naphthalen-2-yl)-1H-pyrazol-5-yl)-3-cyclohexylurea], which IC50 is on record?
Answer: 22 nM

Question: For `CC(C)(C)c1cc(NC(=O)Nc2ccc(F)cc2)n(-c2cc(CO)c3ccccc3c2)n1` [Example 293], which IC50 is on record?
Answer: 7 nM

Question: `CC(C)(C)c1cc(NC(=O)Nc2cccc(F)c2F)n(-c2cc(CO)c3ccccc3c2)n1` [Example 294] was tested. Which IC50 did it give?
Answer: 3.3 nM

Question: With `CC(C)(C)c1cc(NC(=O)Nc2ccccc2)n(-c2cc(CN)c3ccccc3c2)n1` [Example 295, 1-[1-(4-(aminomethyl)naphthalen-2-yl)-3-t-butyl-1H-pyrazol-5-yl]-3-phenylurea] as the compound, how does the IC50 read?
Answer: 52 nM

Question: For `CCOC(=O)Cc1cc(-n2nc(C(C)(C)C)cc2NC(=O)Nc2ccc(Cl)cc2)cc2ccccc12` [Example 298, (3-{3-t-butyl-5-[3-(4-chlorophenyl)ureido]pyrazol-1-yl}naphthalen-1-yl)acetic acid ethyl ester], which IC50 is on record?
Answer: 83 nM

Question: With `COC(=O)Cc1cc(-n2nc(C(C)(C)C)cc2NC(=O)Nc2ccccc2)cc2ccccc12` [Example 299, {3-[3-t-butyl-5-(3-phenylureido)pyrazol-1-yl]naphthalen-1-yl}acetic acid methyl ester] as the compound, how does the IC50 read?
Answer: 20 nM

Question: With `CC(C)(C)c1cc(NC(=O)Nc2ccc(Cl)cc2)n(-c2cc(CC(=O)O)c3ccccc3c2)n1` [Example 300, (3-{3-t-butyl-5-[3-(4-chlorophenyl)ureido]pyrazol-1-yl}naphthalen-1-yl)acetic acid] as the compound, how does the IC50 read?
Answer: 9.2 nM

Question: For `CC(C)(C)c1cc(NC(=O)Nc2ccc(Cl)cc2)n(-c2cc(CCO)c3ccccc3c2)n1` [Example 302, 1-{5-t-butyl-2-[4-(2-hydroxyethyl)naphthalen-2-yl]-2H-pyrazol-3-yl}-3-(4-chlorophenyl)urea], which IC50 is on record?
Answer: 13 nM

Question: How did the IC50 turn out when `CC(C)(C)c1cc(NC(=O)Nc2cccc(Cl)c2Cl)n(-c2cc(CCO)c3ccccc3c2)n1` [Example 303, 1-{5-t-butyl-2-[4-(2-hydroxyethyl)naphthalen-2-yl]-2H-pyrazol-3-yl}-3-(2,3-dichlorophenyl)urea] was run?
Answer: 4.3 nM

Question: With `CC(C)(C)c1cc(NC(=O)Nc2cccc(F)c2)n(-c2ccc3c(c2)CCN3)n1` [Example 306, 1-(3-t-butyl-1-(indolin-5-yl)-1H-pyrazol-5-yl)-3-(3-fluorophenyl)urea] as the compound, how does the IC50 read?
Answer: 36 nM

Question: For `CC(C)(C)c1cc(NC(=O)Nc2ccc(Cl)cc2)n(-c2ccc3c(c2)C(=O)NCC3)n1` [Example 309, 1-[3-t-butyl-1-(1-oxo-1,2,3,4-tetrahydroiso-quinolin-7-yl)-1H-pyrazol-5-yl]-3-(4-chlorophenyl)urea], which IC50 is on record?
Answer: 249 nM

Question: How did the IC50 turn out when `CC(C)(C)c1cc(NC(=O)NC2CCCCC2)n(-c2ccc3c(c2)C(=O)NCC3)n1` [Example 310, 1-(3-t-butyl-1-(1-oxo-1,2,3,4-tetrahydroiso-quinolin-7-yl)-1H-pyrazol-5-yl)-3-cyclohexylurea] was run?
Answer: 98 nM

Question: `CC(C)(C)c1cc(NC(=O)Nc2ccc(F)cc2F)n(-c2ccc3c(c2)C(=O)NCC3)n1` [Example 311, 1-(3-t-butyl-1-(1-oxo-1,2,3,4-tetrahydroiso-quinolin-7-yl)-1H-pyrazol-5-yl)-3-(2,4-difluorophenyl)urea] was tested. Which IC50 did it give?
Answer: 32 nM

Question: Which IC50 does the source give for `CC(C)(C)c1cc(NC(=O)Nc2ccccc2F)n(-c2ccc3c(c2)C(=O)NCC3)n1` [Example 312, 1-(3-t-butyl-1-(1-oxo-1,2,3,4-tetrahydroiso-quinolin-7-yl)-1H-pyrazol-5-yl)-3-(2-fluorophenyl)urea] here?
Answer: 35 nM

Question: Which IC50 does the source give for `CC(C)(C)c1cc(NC(=O)Nc2ccccc2Cl)n(-c2ccc3c(c2)C(=O)NCC3)n1` [Example 313, 1-(3-t-butyl-1-(1-oxo-1,2,3,4-tetrahydroiso-quinolin-7-yl)-1H-pyrazol-5-yl)-3-(2-chlorophenyl)urea] here?
Answer: 46 nM

Question: Which IC50 does the source give for `Cc1cc(NC(=O)Nc2cc(C(C)(C)C)nn2-c2ccc3c(c2)C(=O)NCC3)no1` [Example 314, 1-(3-t-butyl-1-(1-oxo-1,2,3,4-tetrahydroiso-quinolin-7-yl)-1H-pyrazol-5-yl)-3-(5-methylisoxazol-3-yl)urea] here?
Answer: 266 nM

Question: Which IC50 does the source give for `CC(C)(C)c1cc(NC(=O)Nc2ccc(Cl)cc2)n(-c2ccc3c(c2)CCC(=O)N3)n1` [Example 315, 1-(3-t-butyl-1-(2-oxo-1,2,3,4-tetrahydro-quinolin-6-yl)-1H-pyrazol-5-yl)-3-(4-chlorophenyl)urea] here?
Answer: 186 nM

Question: Which IC50 does the source give for `CC(C)(C)c1cc(NC(=O)Nc2ccc(F)cc2)n(-c2ccc3c(c2)CCC(=O)N3)n1` [Example 317] here?
Answer: 36 nM
